The values below come from patent publication US5624687A, “Quick-dissolution solid preparation” (Yamanouchi Pharmaceutical Co., Ltd., priority 1991, dated 1997).

The term solubility denotes how much of the substance goes into solution per volume. Read a high solubility as a readily soluble substance.

Structures can show the parent of a compound that is named as a salt.

The nature of the data set: Solubility determination of bulk substance in test solutions of various pH (37° C., 1 hour). It is filed as physicochemical. Particulars: for solubility at 1 h: test solution. The method, then: Emonapride hydrochloride (0.05-5 g) was added to 10 ml portions of test solutions of various pH and each mixture was shaken at 37° C. for 1 hour, at the end of which it was filtered through Nucripore Membrane (pore size 0.6 μm). A definite portion of the filtrate was taken out and diluted with acetate buffer (pH 3.0) for use as a sample solution.
Separately, about 0.1 g of emonapride hydrochloride was accurately weighed out and dissolved in methanol to make exactly 100 ml. One milliliter portion of this solution was accurately taken out and diluted with acetate buffer (pH 3.0) to make exactly 100 ml for use as the standard solution. For each of the test solution and the standard solution, the absorbance at 313 nm was measured by absorption spectrometry and the solubility was determined.
In the preparation of the test solutions, JP Test Solution 1 was used for pH 1.2, acetate buffer (S.phi.rensen buffer) for pH 2.0-5.0, phosphate buffer (Clark-Lubs buffer) for pH 6.0-7.6 and JP Test Solution 2 for pH 6.8.

Take `CNc1cc(OC)c(C(=O)NC2CCN(Cc3ccccc3)C2C)cc1Cl` (centres unmarked) [emonapride hydrochloride]: the “solubility change with pH” value (as the pH exceeded 4, 37° C.) is “decreased sharply”. Moreover, the “pH dependence of dissolution” value (bulc substance, from solubility at various pH) is reported as “pH-dependent”. In addition, the solubility at 1 h was at least 5000 µg/mL (pH≤4, 37° C.) and at most 10 µg/mL (pH≥6.8, 37° C.).

For the compound `CNc1cc(OC)c(C(=O)NC2CCN(Cc3ccccc3)C2C)cc1Cl` (centres unmarked) [Emonapride, N-(1-Benzyl-2-methylpyrrolidin-3-yl)-5-chloro-2-methoxy-4-methylaminobenzamide], the “solubility (statement in the description)” value (conditions over pH 4) was “drastically insoluble”.
